Results from patent US20100272853A1, “Method of Increasing the Milk and/or Meat Quantity of Silage-Fed Animals” (BASF SE, priority 2007, published 2010).

How the values were obtained:
Assay type in all cases: in vivo
corn [1] = assay: Strip field trials Maryland 2006: corn forage quality by NIRS and MILK 2006 calculated milk production
Description: (§1) Field trials were conducted as strip trials in farm fields in 2006 and 2008. A part of the field was treated with pyraclostrobin applied as Headline® whereas another part was left untreated. Headline® was applied at tassel emergence with 0.44 L/ha (110 g pyraclostrobin per ha) by aerial or ground application with a high clearance sprayer. Total spray volume was 93.5 to 187 L/ha for ground application and 18.7 to 46.7 L/ha for aerial application, respectively. Water was used as a carrier to prepare the spray mixture.
(§2) Trials were harvested using a commercial forage harvester when the corn crop reached a dry matter content of about 30 to 40%. The treated and untreated area of the field was harvested separately to gain total biomass yield (ton/acre). Subsequently, the harvested plant material was used for producing silage.
(§3) Forage samples from the harvested plants were taken from both the treated and untreated areas of the field. Samples were taken from the harvested material in the forage wagon following chopping with the commercial harvester. Multiple forage samples were taken for each of both treatments manually during harvesting in each of the trials, mixed in a larger container, and a subsample of 1.3 to 2.25 kg was taken. The subsamples were placed in plastic bags, sealed, cooled, and shipped immediately to Agsource Soil and Forage Laboratory, 106 North Cecil Street, Bonduel Wis. 54107, USA for Near Infrared Reflectance Spectroscopy (NIRS) analysis.
(§4) Typically, samples for NIRS analysis are first dried at 55 to 65° C. for 24 h to 48 h prior to analysis. A representative subsample thereof is then dried at 105° C. for another 12 h to 24 h to evaluate the dry matter content of the samples. Subsequently, the remaining sample is grinded and homogenized and again a representative subsample is used for the NIRS analysis. The NIRS analysis procedure uses a commercially available calibration to estimate the values for each quality parameter based on the spectral reflectance information gained. The calibrations are based on the near infra red reflectance spectra of samples with known quality data. The comparison of the spectra of the samples with unknown quality data with the spectra of the known samples allows calculating estimates for each quality parameter of interest.
(§5) NIRS analysis provided dry matter, crude protein, Acid Detergent Fibre (ADF), Neutral Detergent Fibre (NDF), and starch data. Calculations were included for moisture, adjusted crude protein, Total Digestible Nutrients (TDN), Net Energy for Lactation (NEL), Net Energy for Gain (NEG) and protein solubility.
(§6) The information was then entered into the MILK 2006 University of Wisconsin Corn Silage evaluation system. Calculations of the milk production, energy content and digestibility per ton of corn biomass were carried out using a calculation method described in:
(§7) a) Schwab, E. C., and R. D. Shaver. 2001: “Evaluation of corn silage nutritive value using MILK2000” (pages 21-24) in Proc. of 25th Forage Production and Use Symposium. WI Forage Council Annual Mtg. Eau Claire, Wis. b) Schwab, E. C., R. D. Shaver. J. G. Lauer, and J. G. Coors. 2003: “Estimating silage energy value and milk yield to rank corn hybrids”. J. Anim. Feed Sci. Technol. 109: 1-18. as well as in c) Undersander, D. J., W. T. Howard, and R. D. Shaver. 1993: “Milk per acre spreadsheet for combining yield and quality into a single term”. J. Prod. Ag. 6: 231 235.
In 2006 a total of 16 strip trials were conducted in Queen Ann County, MD. Trial setup, treatments, application, harvesting, sampling and quality analysis including calculation of milk production per ton and per acre followed the procedure described before.

corn [2] = assay: Strip field trials New York 2006: corn forage quality by NIRS and MILK 2006 calculated milk production
Description: as §1, §2, §3, §4, §5, §6, §7
In 2006 a total of 2 strip trials were conducted in Waterloo, N.Y. Trial setup, treatments, application, harvesting, sampling and quality analysis including calculation of milk production per ton and per acre followed the procedure described before.

corn hybrids = assay: Field trial Wisconsin 2008 with eight corn hybrids: calculated milk production per ton of harvested biomass; details: for Calculated milk production, Milk (kg/t): Unity, Wis., 2008
Description: as §1, §2, §3, §4, §5, §6, §7
Eight different corn hybrid varieties were tested in a field trial in Unity, Wis., in 2008. Trial setup, application, harvesting, sampling and quality analysis including calculation of milk production per ton followed the procedure described before. Each hybrid was either treated with pyraclostrobin as described before or untreated. The quality data was converted into milk production per ton of harvested biomass for each hybrid as described above.

corn [3] = assay: Strip field trials Wisconsin 2006: corn forage quality by NIRS and MILK 2006 calculated milk production
Description: as §1, §2, §3, §4, §5, §6, §7
In 2006 a total of 7 strip trials were conducted in Manitowoc County, Wis. Trial setup, treatments, application, harvesting, sampling and quality analysis including calculation of milk production per ton and per acre followed the procedure described before.

[4] = MD 2006, vs untreated part of field
[5] = average of 16 strip trials, MD 2006, 110 g pyraclostrobin per ha at tassel emergence
[6] = N.Y. 2006, vs untreated part of field
[7] = average of 2 strip trials, N.Y. 2006, 110 g pyraclostrobin per ha at tassel emergence
[8] = Example 4.5, hybrid N27B CBLLRW
[9] = Wis. 2006, vs untreated part of field
[10] = average of 7 strip trials, Wis. 2006, 110 g pyraclostrobin per ha at tassel emergence

## COC(=O)N(OC)c1ccccc1COc1ccn(-c2ccc(Cl)cc2)n1 [Pyraclostrobin, pyraclostrobin]
Corn [1]; [4]
  % CP, % Difference to Untreated: +6.0%
  % NDFD, % Difference to Untreated: +3.9%
  % Starch, % Difference to Untreated: +10.2%
  Milk (kg/t), % Difference to Untreated: +5.9%
  TDN % of DM, % Difference to Untreated: +3.6%
Corn [1]; MD 2006, vs untreated part of field, decrease means more energy content
  % NDF, % Difference to Untreated: −4.8%
Corn [1]; [5]
  in vitro 48-hour digestible NDF expressed as percent of NDF (% NDFD): 60.6%
  neutral detergent fiber content (% NDF): 45.9%
  starch content (% Starch): 28.2%
  total digestible nutrients as percent of dry matter (TDN % of DM): 70.0%
Corn [1]; average of 16 strip trials, MD 2006, 110 g pyraclostrobin per ha, MILK 2006 calculation
  calculated value for milk produced per ton of silage (Milk (kg/t)): 1730 kg/t
Corn [1]; average of 16 strip trials, Queen Ann County, MD, 2006, Headline 0.44 L/ha (110 g pyraclostrobin per ha) at tassel emergence
  crude protein content (% CP): 7.1%
Corn [2]; [6]
  % CP, % Difference to Untreated: +6.0%
  % Dry Matter, % Difference to Untreated: −2.2%
  % NDFD, % Difference to Untreated: +19.3%
  % Starch, % Difference to Untreated: +15.3%
  Milk (kg/t), % Difference to Untreated: +21.2%
Corn [2]; N.Y. 2006, vs untreated part of field, decrease means more energy content
  % NDF, % Difference to Untreated: −16.8%
Corn [2]; [7]
  crude protein content (% CP): 6.52%
  in vitro 48-hour digestible NDF expressed as percent of NDF (% NDFD): 51.30%
  neutral detergent fiber content (% NDF): 38.18%
  starch content (% Starch): 42.42%
Corn [2]; average of 2 strip trials, N.Y. 2006, 110 g pyraclostrobin per ha, MILK 2006 calculation
  calculated value for milk produced per ton of silage (Milk (kg/t)): 1653 kg/t
Corn [2]; average of 2 strip trials, Waterloo, N.Y., 2006, 110 g pyraclostrobin per ha at tassel emergence
  dry matter content (% Dry Matter): 36.45%
Corn hybrids; Example 4.1, hybrid DS93VT3
  Milk, % Difference to Untreated: +9.6%
  Calculated milk production, Milk (kg/t): 1608 kg/t
Corn hybrids; Example 4.2, hybrid S4900VT
  Milk, % Difference to Untreated: +17.5%
  Calculated milk production, Milk (kg/t): 1581 kg/t
Corn hybrids; Example 4.3, hybrid 3114VT3
  Milk, % Difference to Untreated: +7.1%
  Calculated milk production, Milk (kg/t): 1648 kg/t
Corn hybrids; Example 4.4, hybrid 491VT3
  Milk, % Difference to Untreated: +10.9%
  Calculated milk production, Milk (kg/t): 1643 kg/t
Corn hybrids; [8]
  Milk, % Difference to Untreated: +22.0%
  Calculated milk production, Milk (kg/t): 1549 kg/t
Corn hybrids; Example 4.6, hybrid DS93VT3
  Milk, % Difference to Untreated: +20.9%
  Calculated milk production, Milk (kg/t): 1600 kg/t
Corn hybrids; Example 4.7, hybrid DKC48-37
  Milk, % Difference to Untreated: +8.8%
  Calculated milk production, Milk (kg/t): 1684 kg/t
Corn hybrids; Example 4.8, hybrid DS93VT3
  Milk, % Difference to Untreated: +8.3%
  Calculated milk production, Milk (kg/t): 1632 kg/t
Corn hybrids; across the eight tested different corn hybrids
  milk production per ton of harvested corn biomass, result in words: improves the milk production per ton of harvested corn biomass
Corn [3]; [9]
  % CP, % Difference to Untreated: +4.2%
  % NDFD, % Difference to Untreated: +13.2%
  % Starch, % Difference to Untreated: +13.7%
  Milk (kg/t), % Difference to Untreated: +14.0%
Corn [3]; Wis. 2006, vs untreated part of field, decrease means more digestibility
  % ADF, % Difference to Untreated: −16.2%
Corn [3]; Wis. 2006, vs untreated part of field, decrease means more energy content
  % NDF, % Difference to Untreated: −13.4%
Corn [3]; average of 7 strip trials, Manitowoc County, Wis., 2006, 110 g pyraclostrobin per ha at tassel emergence
  crude protein content (% CP): 7.5%
Corn [3]; [10]
  acid detergent fiber content (% ADF): 22.2%
  in vitro 48-hour digestible NDF expressed as percent of NDF (% NDFD): 67.6%
  neutral detergent fiber content (% NDF): 39.5%
  starch content (% Starch): 37.4%
Corn [3]; average of 7 strip trials, Wis. 2006, 110 g pyraclostrobin per ha, MILK 2006 calculation
  calculated value for milk produced per ton of silage (Milk (kg/t)): 1815 kg/t
